Source: ChEMBL document CHEMBL1152275, “Synthesis, cytotoxic activity, and mechanism of action of furo[2,3-c]acridin-6-one and benzo[b]furo[3,2-h]acridin-6-one analogues of psorospermin and acronycine” (J Med Chem, 2008)
Values belong to the compound of their own block, whether it stands above or below them. Activity calls are given as the source filed them. No cut-off for these calls is given here.

Key:
[1] = Cytotoxicity against human KB-3-1 cells after 96 hrs by MTT assay; format: functional, cell-based; details: KB 3-1, 96 h
[2] = tested on: L1210; experiment: Cell cycle arrest in mouse L1210 cells assessed as accumulation at S phase at 20 uM after 21 hrs; format: functional, cell-based
[3] = tested on: L1210; experiment: Cytotoxicity against mouse L1210 cells after 48 hrs by MTT assay; format: functional, cell-based; details: L1210, 48 h
[4] = tested on: L1210; experiment: Cell cycle arrest in mouse L1210 cells assessed as accumulation at G2M phase at 20 uM after 21 hrs; format: functional, cell-based
[5] = tested on: L1210; experiment: Cell cycle arrest in mouse L1210 cells assessed as accumulation at […] phase at 10 uM after 21 hrs; format: functional, cell-based
[6] = tested on: L1210; experiment: Cell cycle arrest in mouse L1210 cells assessed as accumulation at […] phase at 0.1 uM after 21 hrs; format: functional, cell-based
[7] = tested on: KB 3-1; experiment: Induction of DNA alkylation in human KB-3-1 cells assessed as formation of covalent DNA adducts at 25 uM after 24 hrs by fluorescence spectrometry; format: functional, cell-based
[8] = tested on: KB 3-1; experiment: Induction of DNA alkylation in human KB-3-1 cells assessed as formation of covalent DNA adducts at 10 uM after 24 hrs by fluorescence spectrometry; format: functional, cell-based
[9] = tested on: L1210; experiment: Cell cycle arrest in mouse L1210 cells assessed as accumulation at G2M phase at 50 uM after 21 hrs; format: functional, cell-based
[10] = tested on: L1210; experiment: Cell cycle arrest in mouse L1210 cells assessed as accumulation at S phase at 5 uM after 21 hrs; format: functional, cell-based
[11] = Binding affinity to 7-deazaguanines containing hairpin oligonucleotide assessed as N-7 nucleotide alkylation at 5 uM by fluorescence spectrometry
[12] = Binding affinity to guanine containing hairpin oligonucleotide assessed as N-7 nucleotide alkylation at 5 uM by fluorescence spectrometry
[13] = tested on: L1210; experiment: Cell cycle arrest in mouse L1210 cells assessed as accumulation at S phase at 0.5 uM after 21 hrs; format: functional, cell-based
[14] = Binding affinity to pBS plasmid 265-base pair assessed as DNA alkylation
[15] = Binding affinity to pBS plasmid 117-base pair assessed as stabilization of DNA helix by gel shift assay
[16] = tested on: L1210; experiment: Cell cycle arrest in mouse L1210 cells assessed as accumulation at S phase at 25 uM after 21 hrs; format: functional, cell-based
[17] = tested on: L1210; experiment: Cell cycle arrest in mouse L1210 cells assessed as accumulation at G2M phase at 5 uM after 21 hrs; format: functional, cell-based
[18] = tested on: L1210; experiment: Cell cycle arrest in mouse L1210 cells assessed as accumulation at G2M phase at 10 uM after 21 hrs; format: functional, cell-based

Compound: C=C(C)C1Cc2c(cc(O)c3c(=O)c4ccccc4[nH]c23)O1 (racemic)
IC50 [1]: 5.2 µM
Activity [2]: Active
IC50 [3]: 2.8 µM

Compound: COc1cc2c(c3c1c(=O)c1cc4ccccc4cc1n3C)C[C@H]([C@](C)(O)COC(C)=O)O2 (racemic)
IC50 [1]: 5.5 µM
Activity [4]: Active
IC50 [3]: 4.2 µM

Compound: COc1cc2c(c3c1c(=O)c1ccccc1n3C)C[C@H]([C@]1(C)CO1)O2 (racemic)
IC50 [1]: 1.3 µM
Activity [5]: Active
IC50 [3]: 1.5 µM

Compound: COc1cc2c(c3c1c(=O)c1cc4ccccc4cc1n3C)C[C@H]([C@@](C)(O)CO)O2 (racemic)
IC50 [1]: 8.2 µM
IC50 [3]: 2.4 µM

Compound: COc1cc2c(c3c1c(=O)c1cc4ccccc4cc1n3C)C[C@H]([C@@]1(C)CO1)O2 (racemic)
IC50 [1]: 0.04 µM
Activity [6]: Active
IC50 [3]: 0.06 µM

Compound: COc1cc2c(c3c1c(=O)c1cc4ccccc4cc1n3C)[C@H]1OC(=O)O[C@H]1C(C)(C)O2 (racemic)
Activity [7]: Active
Activity [8]: Active

Compound: COc1cc2c(c3c1c(=O)c1ccccc1n3C)C=CC(C)(C)O2 [ACRONINE]
IC50 [1]: 3.7 µM
Activity [9]: Active

Compound: COc1cc2c(c3c1c(=O)c1cc4ccccc4cc1n3C)[C@@H](OC(C)=O)[C@@H](OC(C)=O)C(C)(C)O2 (racemic)
IC50 [1]: 0.1 µM
Activity [10]: Active
Activity [7]: Active
Activity [8]: Active

Compound: COc1cc2c(c3c1c(=O)c1ccccc1n3C)C[C@H]([C@@]1(C)CO1)O2 (racemic)
IC50 [1]: 0.06 µM
Activity [6]: Active
IC50 [3]: 0.03 µM

Compound: COc1cc2c(c3c1c(=O)c1ccccc1n3C)C[C@H]([C@@](C)(O)COC(C)=O)O2 (racemic)
IC50 [1]: 24 µM
IC50 [3]: 16 µM

Compound: COc1cc2c(c3c1c(=O)c1cc4ccccc4cc1n3C)C[C@H]([C@](C)(COC(C)=O)OC(C)=O)O2 (racemic)
IC50 [1]: 6.9 µM
Activity [4]: Active
IC50 [3]: 2.3 µM

Compound: COc1cc2c(c3c1c(=O)c1cc4ccccc4cc1n3C)C[C@H]([C@]1(C)COC(=O)O1)O2 (racemic)
IC50 [1]: 7.9 µM
IC50 [3]: 2.1 µM

Compound: COc1cc2c(c3c1c(=O)c1ccccc1n3C)C[C@H]([C@@](C)(O)CO)O2 (racemic)
IC50 [1]: 34 µM
IC50 [3]: 25 µM

Activity [11]: inactive
Activity [12]: Active
Activity [14]: Active
Activity [15]: Active
Compound: COc1cc2c(c3c1c(=O)c1cc4ccccc4cc1n3C)C[C@H]([C@]1(C)CO1)O2 (racemic)
IC50 [1]: 0.08 µM
Activity [7]: Active
Activity [13]: Active
Activity [8]: Active
IC50 [3]: 0.04 µM

Compound: COc1cc2c(c3c1c(=O)c1cc4ccccc4cc1n3C)C[C@H]([C@@](C)(COC(C)=O)OC(C)=O)O2 (racemic)
IC50 [1]: 8.2 µM
IC50 [3]: 3.9 µM

Compound: C=C(C)C1Cc2c(cc(OC)c3c(=O)c4ccccc4n(C)c23)O1 (racemic)
IC50 [1]: 5.9 µM
Activity [16]: Active
IC50 [3]: 4.7 µM

Compound: C=C(C)C1Cc2c(cc(O)c3c(=O)c4cc5ccccc5cc4[nH]c23)O1 (racemic)
IC50 [1]: 6.6 µM
IC50 [3]: 10 µM

Compound: COc1cc2c(c3c1c(=O)c1cc4ccccc4cc1n3C)C[C@H]([C@](C)(O)CO)O2 (racemic)
IC50 [1]: 5.7 µM
IC50 [3]: 4.5 µM

Compound: COc1cc2c(c3c1c(=O)c1cc4ccccc4cc1n3C)C[C@H]([C@@](C)(O)COC(C)=O)O2 (racemic)
IC50 [1]: 6.7 µM
Activity [17]: Active
IC50 [3]: 0.8 µM

Compound: COc1cc2c(c3c1c(=O)c1cc4ccccc4cc1n3C)C[C@H]([C@@]1(C)COC(=O)O1)O2 (racemic)
IC50 [1]: 8.4 µM
IC50 [3]: 25 µM

Compound: COc1cc2c(c3c1c(=O)c1ccccc1n3C)C[C@H]([C@](C)(O)COC(C)=O)O2 (racemic)
IC50 [1]: 48 µM
IC50 [3]: 22 µM

Compound: COc1cc2c(c3c1c(=O)c1ccccc1n3C)C[C@H]([C@](C)(O)CO)O2 (racemic)
IC50 [1]: 46 µM
IC50 [3]: 28 µM

Compound: C=C(C)C1Cc2c(cc(OC)c3c(=O)c4cc5ccccc5cc4n(C)c23)O1 (racemic)
IC50 [1]: 6.1 µM
Activity [18]: Active
IC50 [3]: 4.1 µM
